Columns and labels:
[1] = humans, cited from earlier work
[2] = cited from earlier work
[3] = intravenous injection, animal-based work; cited from earlier work
[4] = intranasal 16 or 24 IU; cited from earlier work
[5] = cited from earlier work; remark: listed apart in the source
[6] = Plasma OXT concentration after intranasal OXT; type: in vivo; details: male, human, inhaled or intranasal, 24 IU
[7] = monkeys, starting level, cervical puncture; cited from earlier work

Row | Compound | time to increase in CSF concentrations ([1]; intranasal 40 IU) | increase in CSF concentrations (fold) ([1]; intranasal 80 IU) | time to significant increase in CSF concentrations ([1]; intranasal 80 IU) | increase of half-life in CSF (compared to plasma) [2] | fraction of the peptide that crossed the blood-brain barrier (BBB) [3] | duration of increase in OXT saliva concentrations [4] | time of increases in OXT plasma concentrations ([5]; intranasal 24 IU) | time of peak elevated OXT plasma concentrations ([5]; intranasal OXT 30 IU, three male volunteers) | Tmax [6] | level at 1.5 h ([6]; SD) | OXT CSF concentration before increase [7]
1 | arginine vasopressin [arginine vasopressin (AVP)] | up to 60 min | up to 4 fold | 10 min | – | – | – | – | – | – | – | –
2 | CC[C@H](C)[C@@H]1NC(=O)[C@H](Cc2ccc(O)cc2)NC(=O)[C@@H](N)CSSC[C@@H](C(=O)N2CCC[C@H]2C(=O)N[C@@H](CC(C)C)C(=O)NCC(N)=O)NC(=O)[C@H](CC(N)=O)NC(=O)[C@H](CCC(N)=O)NC1=O [OXT, oxytocin] | – | – | – | 30–40 fold | approximately 0.01% | up to 7 h | 30 to 40 min | 10 to 40 min | 15 min | 0.0123 ± 0.006 ng/mL | around 20 pg/ml
